Experimental data from patent US6911474B2, “Methods, compounds, and compositions for reducing body fat and modulating fatty acid metabolism” (The Regents of the University of California, priority 2001, dated 2005).
Ends that are not written are not given here.

How the values were obtained:
[1] = Acute food intake in 24-h food-deprived rats after i.p. administration; type: in vivo, rat; conditions: 24-h food-deprived rats, 15 min before food presentation, FIG. 4a,b
Procedure: Feeding experiments. Acute experiments. Food intake was measured in 24-h food-deprived rats (Navarro et al., J. Neurochem., 67:1982-1991 (1996)), administering drugs 15 min before food presentation. Subchronic experiments. Ad libitum fed rats received vehicle injections for three days. On day four, the animals were divided in two equal groups and gave them daily injections of vehicle or OEA (5 mg per kg at 1900 h) for 7 consecutive days, while measuring body weight, food intake and water intake.
The effects of systemically administered OEA on food intake in rats can be assessed using a 24 h fast. […] To define the selectivity of this response, various OEA analogs were evaluated for their ability to produce hypophagia.

[2] = tested on: Soleus muscle; test: [14C]oleate oxidation to CO2 in soleus muscle; type: cell-based, rat; conditions: soleus muscle, structure-activity relationship; FIG. 8
[3] = Conditioned taste aversion; type: in vivo, rat; conditions: OEA 20 mg per kg, i.p.; lithium chloride 0.4 M, 7.5 ml per kg; FIG. 4c
Procedure: Conditioned taste aversion. Rats were water-deprived for 24 h and then accustomed to drink from a graded bottle during a 30-min test period for four days. On day five, water was substituted with a 0.1% saccharin solution and, 30 min later, the animals received injections of vehicle, OEA (20 mg per kg) or lithium chloride (0.4 M, 7.5 ml per kg). During the following two days, water consumption was recorded over 30-min test periods. The animals were then presented with water or saccharin, and drinking measured.

[4] = Food intake in capsaicin-treated rats (sensory fibers destroyed); type: in vivo, rat; conditions: OEA 10 mg per kg, i.p., FIG. 6a,c
Source text: Chemicals. FAEs and [^2H4] FAEs were synthesized in the laboratory (Giuffrida et al., “Lipid Second Messengers” (ed. Laychock, S. G. & Rubin, R. P.) 113-133 (CRC Press LLC, Boca Raton, Fla., 1998)); 1,2-dioleyl-sn-glycero-phosphoethanolamine-N-oleyl was purchased from Avanti Polar Lipids (Alabaster, Ala.); SR141716A was provided by RBI (Natick, Mass.) as part of the Chemical Synthesis Program of the NIMH (N01MH30003); SR144528 was a generous gift of Sanofi Recherche; all other drugs were from Tocris (Ballwin, Mo.) or Sigma (Saint Louis, Mo.). FAE were dissolved in dimethylsulphoxide (DMSO) and administered in 70% DMSO in sterile saline (acute treatments) or 5% Tween 80/5% propylenglycol in sterile saline (subchronic treatments) (1 ml per kg, i.p.). Capsaicin was administered in 10% Tween 80/10% ethanol/80% saline; SR141716A, SR144528, CCK-8 and CP-93129 in 5% Tween 80/5% propylenglycol/90% saline (1 ml per kg, i.p.).
These findings support the hypothesis that OEA causes hypophagia by acting at a peripheral site, and that sensory fibers are required for this effect.

With `CCCCC/C=C\C/C=C\C/C=C\C/C=C\CCCC(=O)NCCO` [Anandamide, arachidonylethanolamide, reference compound] the “suppression of food intake (hypophagia)” value [1] was “no effect” and the “mimicking of the effect of OEA on skeletal muscle fatty acid oxidation” value (shortened to “mimicking of the effect of OEA”) [2] was “not”.
With `CCCCCCCCCCCCCCCC(=O)NCCO` [Palmitylethanolamide, palmitylethanolamide] the “suppression of food intake (hypophagia)” value [1] was “active but significantly less potent than OEA” and the “mimicking of the effect of OEA” value [2] was “only partially”.
For `[Cl-].[Li+]` [lithium chloride], the conditioned taste aversion [3] was “readily provoked”.
In the case of “cholecystokinin-8 (DYMGWMDF; ends and bridges not checked; UniProt P06307 96-103, looked up) [CCK-8, peripherally administered cholecystokinin-8]”, the “food intake response of capsaicin-treated rats” value [4] is reported as “failed to respond”.
For `O=c1ccc2[nH]cc(C3=CCNCC3)c2[nH]1` [CP-93129], the “food intake response of capsaicin-treated rats” value [4] was “responded normally”.
In the case of `CCCCCCCC/C=C\CCCCCCCC(=O)O` [oleic acid, reference compound], the “suppression of food intake (hypophagia)” value [1] is reported as “no effect” and the “mimicking of the effect of OEA” value [2] is reported as “not”.
